Earlier results in patent US20250082624A1, “METHODS OF TREATING COGNITIVE IMPAIRMENT” (NeuroTherapia, Inc., priority 2023, published 2025).

Tested on: rats
Conditions: intracerebroventricular administration; cited from earlier work

Cc1c(C(=O)c2cccc3ccccc23)c2cccc3c2n1[C@H](CN1CCOCC1)CO3 [WIN 55,212-2]
Aβ-induced microglial activation, cognitive impairment, loss of neuronal markers: prevented A13-induced microglial activation, cognitive impairment, and loss of neuronal markers
